Laboratory results as given in US20230286973A1, “PROTEIN SECRETION INHIBITORS” (KEZAR LIFE SCIENCES, priority 2020, published 2023).
pEC50, pIC50: −log10 of the molar value.

How the values were obtained:
[1] = tested on: PD1-ss+10aa/Gaussia Luciferase; assay: Dox-Induced PD1-ss-Gluc Assay; format: cell-based; settings: 24 hr Dox induction; 293FRT/TO cells; mean; read-out: 24 hr Dox Inducible PD1ssGluc 293FRT/TO: Mean IC50
Procedure, shortened: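 Compounds were added in DMSO/media with doxycycline and incubated at 37 °C, 5% CO2, on 293 T-REx cells plated one day earlier. These cells stably express, under tetracycline-regulated control, a Gaussia luciferase fused to the PD1 signal peptide plus 10 residues. Structures drawn without stereochemistry were tested as stereoisomer mixtures.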

[2] = tested on: multiple myeloma cell line U266B1; assay: U266 Cell Viability Assay; format: cell-based, human; settings: Homo sapiens, U-266, 48 h, U266B1 cells, Celltiter-Glo
Procedure, shortened: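 Viability is measured as luciferase signal from CellTiter-Glo following a 48-hour incubation with compound at 37° C. under 5% CO2. Where structures lack drawn stereochemistry, values refer to stereoisomer mixtures.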

[3] = Liver Microsome Stability Assay (mouse); settings: mouse liver microsomes, with NADPH, 1.0 uM compound
Description: (§1) Stability of a compound was assessed in the presence of liver microsomes from various sources—mouse, rat, monkey and human liver microsomes. 1.0 uM compound, 0.4% DMSO in 0.1 M Potassium Phosphate with 1.0 mg/mL liver microsomes, were incubated at 37° C. with or without 1 mM NADPH. The samples were quenched at 0, and 30 minutes.

[4] = Liver Microsome Stability Assay (rat); settings: rat liver microsomes, with NADPH, 1.0 uM compound
Description: as §1

[5] = Liver Microsome Stability Assay (monkey); settings: monkey liver microsomes, with NADPH, 1.0 uM compound
Description: as §1

[6] = tested on: HER3-ss+4aa/Gaussia Luciferase; assay: Dox-Induced Her3-ss-Gluc Assay; format: cell-based; settings: 24 hr Dox induction; 293FRT/TO cells; mean; read-out: 24 hr Dox Inducible Her3(ss + 4)Gluc 293FRT/TO: Mean IC50
Procedure, shortened: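 Reporter line: Flp-In 293 T-REx, T-REx-regulated HER3-ss+4aa fused to Gaussia luciferase. Compound co-added with doxycycline after overnight plating, 37° C., 5% CO2.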

[7] = tested on: IL-2-FL/Gaussia Luciferase; assay: Dox Induced IL2-FL-Gluc Assay; format: cell-based; settings: for pIC50: 24 hr Dox induction, 293FRT/TO cells, mean, read-out: 24 hr Dox Inducible IL2FLGluc 293FRT/TO: Mean IC50; for 24 hr Dox Inducible IL2FLGluc 293FRT/TO: IL2/PD1: ratio of IL2FLGluc IC50 to PD1ssGluc IC50, '<=>' given where both are I.A.
Procedure, shortened: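 Doxycycline induces an IL-2(1-153)–Gaussia luciferase fusion in a stable Flp-In 293 T-REx line. Compound exposure runs alongside induction at 37° C.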

[8] = Liver Microsome Stability Assay (human); settings: human liver microsomes, with NADPH, 1.0 uM compound
Description: as §1

[9] = tested on: TNFα-FL/Gaussia Luciferase; assay: Dox Induced TNFα-FL-Gluc Assay; format: cell-based; settings: for pIC50: 24 hr Dox induction, 293FRT/TO cells, mean, read-out: 24 hr Dox Inducible TNFaFLGluc 293FRT/TO: Mean IC50; for 24 hr Dox Inducible TNFaFLGluc 293FRT/TO: TNF/PD1: ratio of TNFaFLGluc IC50 to PD1ssGluc IC50, '<=>' given where both are I.A.
Procedure, shortened: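 Doxycycline-inducible Gaussia luciferase-tagged full-length TNFα (1-233) was expressed in stable Flp-In 293 T-REx cells. Compounds were co-added with doxycycline and incubated at 37 °C, 5% CO2.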

[10] = tested on: multiple myeloma cell line NCI-H929; assay: H929 Cell Viability Assay; format: cell-based, human; settings: Homo sapiens, NCI-H929, 48 h, NCI-H929 cells, Celltiter-Glo
Procedure, shortened: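 Viability is scored by CellTiter-Glo luminescence following a 48-hour treatment at 37° C. Data for structures shown without stereochemistry refer to stereoisomer mixtures.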

Row | Compound | pIC50 [1] | pEC50 [2] | Liver Microsome Stability (Multiple Species): Mouse - % Remaining after 30 min w/NADPH [3] [%] | Liver Microsome Stability (Multiple Species): Rat - % Remaining after 30 min w/NADPH [4] [%] | Liver Microsome Stability (Multiple Species): Monkey - % Remaining after 30 min w/NADPH [5] [%] | pIC50 [6] | pIC50 [7] | 24 hr Dox Inducible IL2FLGluc 293FRT/TO: IL2/PD1 [7] | Liver Microsome Stability (Multiple Species): Human - % Remaining after 30 min w/NADPH [8] [%] | pIC50 [9] | 24 hr Dox Inducible TNFaFLGluc 293FRT/TO: TNF/PD1 [9] | pEC50 [10]
1 | O=C(Nc1nc([C@H]2CCCN2c2ccccc2)cs1)c1cccn1Cc1ccncc1Br [Compound E22, (R)-1-((3-bromopyridin-4-yl)methyl)-N-(4-(1-phenylpyrrolidin-2-yl)thiazol-2-yl)-1H-pyrrole-2-carboxamide] | 6.89 | < 4.60 | 1.4 | 0.79 | 0.58 | 6.66 | 6.40 | 3.1 | 11.5 | 5.47 | 26.4 | 4.92
2 | O=C(Nc1nc([C@H]2CCCN2c2ccccc2)cs1)c1cccn1Cc1ccnc(Br)c1 [Compound E23, (R)-1-((2-bromopyridin-4-yl)methyl)-N-(4-(1-phenylpyrrolidin-2-yl)thiazol-2-yl)-1H-pyrrole-2-carboxamide] | 6.47 | < 4.60 | 6.17 | 4.14 | 2.07 | 6.20 | 6.11 | 2.3 | 3 | 4.94 | 33.8 | 4.74
3 | CC(=O)NC/C=C/c1csc(NC(=O)c2cccn2Cc2ccncc2)n1 [Compound E30, (E)-N-(4-(3-acetamidoprop-1-en-1-yl)thiazol-2-yl)-1-(pyridin-4-ylmethyl)-1H-pyrrole-2-carboxamide] | < 4.60 | < 4.60 | 26.4 | 37.7 | 9.96 | < 4.60 | < 4.60 | 1 | 20.8 | < 4.60 | – | < 4.60
4 | CN(C)CCO[C@@H]1C[C@H](c2csc(NC(=O)c3cccn3Cc3ccncc3)n2)N(c2ccccc2)C1 [Compound E31] | 5.78 | 5.10 | 38.3 | 21.2 | 0.25 | 5.04 | 5.04 | 5.4 | 2.06 | < 4.60 | >15.0 | 5.05
5 | O=C(Nc1nc([C@H]2C[C@@H](OCCO)CN2c2ccccc2)cs1)c1cccn1Cc1ccncc1 [Compound E32] | 5.99 | < 4.60 | 3.3 | 0.79 | 0.09 | 5.51 | 5.40 | 3.9 | 0.21 | 5.15 | 6.91 | 4.60
6 | O=C(Nc1nc(C2C3CN(c4ccccn4)CC32)cs1)c1cccn1Cc1ccncc1 (centres unmarked) [Compound E33, N-(4-(3-(pyridin-2-yl)-3-azabicyclo[3.1.0]hexan-6-yl)thiazol-2-yl)-1-(pyridin-4-ylmethyl)-1H-pyrrole-2-carboxamide] | 5.91 | < 4.60 | 2.58 | 0.18 | 0.1 | 5.41 | 4.83 | 12 | 1.6 | < 4.60 | >20.3 | < 4.60
7 | COc1ccc(O[C@H]2CC[C@H](c3csc(NC(=O)c4cccn4Cc4ccncc4)n3)CC2)nc1 [Compound E34, N-(4-((1r,4r)-4-((5-methoxypyridin-2-yl)oxy)cyclohexyl)thiazol-2-yl)-1-(pyridin-4-ylmethyl)-1H-pyrrole-2-carboxamide] | 6.51 | 5.10 | 0.06 | 0.26 | 3.44 | 6.19 | 5.58 | 8.3 | 0.19 | 5.09 | 26.1 | 4.71
8 | COc1ccc(O[C@H]2CC[C@@H](c3csc(NC(=O)c4cccn4Cc4ccncc4)n3)CC2)nc1 [Compound E35, N-(4-((1s,4s)-4-((5-methoxypyridin-2-yl)oxy)cyclohexyl)thiazol-2-yl)-1-(pyridin-4-ylmethyl)-1H-pyrrole-2-carboxamide] | 6.83 | 4.74 | 0.08 | 1.2 | 0.7 | 6.41 | 6.03 | 6.3 | 0.41 | 5.32 | 32.6 | 5.06
9 | O=C(Nc1nc(C2C3CN(c4ccccc4)CC32)cs1)c1cccn1Cc1ccncc1 (centres unmarked) [Compound E36, N-(4-(3-phenyl-3-azabicyclo[3.1.0]hexan-6-yl)thiazol-2-yl)-1-(pyridin-4-ylmethyl)-1H-pyrrole-2-carboxamide] | 6.55 | 4.86 | 27.8 | 1.49 | 0.83 | 6.05 | 5.77 | 6 | 1.63 | 5.30 | 17.8 | < 4.60
10 | O=C(Nc1nc(C2Cc3cccnc3C2)cs1)c1cccn1Cc1ccncc1 (centres unmarked) [Compound E37, N-(4-(6,7-dihydro-5H-cyclopenta[b]pyridin-6-yl)thiazol-2-yl)-1-(pyridin-4-ylmethyl)-1H-pyrrole-2-carboxamide] | 5.54 | < 4.60 | 0.18 | 0.34 | 0.08 | 5.09 | 4.78 | 5.7 | 0.08 | < 4.60 | >8.63 | < 4.60
